{
  "source": "patent US8110543B2",
  "about": "“Anti-invasive and anti-angiogenic compositions” (Angstrom Pharmaceuticals, Inc., priority 1997, dated 2012)",
  "key": {"[1]": {"system": "rat breast cancer line Mat B III", "experiment": "Matrigel invasion assay, Mat B-III cells", "assay_type": "cell-based", "conditions": "FIG. 1 (5 μM), FIG. 7, FIG. 8", "experimental": "Several peptides were tested for anti-invasive capacity in a Matrigel® invasion assay system as indicated above (Kleinman et al., supra; Parish et al., supra). Several invasive human tumor lines (PC-3, MDA-MB-231) and non-human tumors (3LL, Mat B-III) were examined. The rat breast cancer line Mat B III and the human prostate cancer line PC-3 were initially used.\nTumor cells (5×10^5/mL, in a volume of 200 μL) in serum-free RPMI 1640 medium were added to a disposable transwell invasion chamber coated with Matrigel® (Becton Dickinson, Lincoln Park, N.J.). The invasion chambers were placed in 24-well tissue culture plates filled with serum-free RPMI-1640 and the plates were placed in an atmosphere of 5% CO2 in humidified air at 37° C. for 48-72 hours. The chambers were then removed, inverted, and the cells which had invaded (and now appeared on the bottom face of the invasion chamber) were fixed and stained using Diff-Quick® (Scientific Products). Cells were counted in 10 different fields on each filter and an average obtained."}, "CHO": {"system": "CHO", "experiment": "In vitro proliferation, CHO cells", "assay_type": "cell-based", "experimental": "Å6 was also tested for its ability to inhibit the proliferation of cells other than endothelial cells in vitro."}, "uPAR": {"molecular_target": "uPAR (Homo sapiens, UniProt Q03405)", "sequence (Q03405 23-305 limits assumed)": "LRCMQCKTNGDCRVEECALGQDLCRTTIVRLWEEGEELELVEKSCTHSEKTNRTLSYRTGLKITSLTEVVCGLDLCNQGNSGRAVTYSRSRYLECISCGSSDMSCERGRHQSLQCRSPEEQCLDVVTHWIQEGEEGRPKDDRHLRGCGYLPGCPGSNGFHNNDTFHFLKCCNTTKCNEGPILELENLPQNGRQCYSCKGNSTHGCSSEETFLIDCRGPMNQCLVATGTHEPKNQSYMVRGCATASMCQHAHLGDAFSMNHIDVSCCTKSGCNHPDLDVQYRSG", "experiment": "Binding of uPA to uPAR"}, "3LL cells": {"system": "3LL cells", "experiment": "Tumor angiogenesis (microvessel density) in 3LL model", "assay_type": "in vivo, Mice", "conditions": "100-250 mg/kg/day; compared to controls", "experimental": "Angiogenesis is measured by determining microvessel density using immunostaining for CD31 (also known as platelet-endothelial cell adhesion molecule or PECAM). Results are reported as the average microvessel density of 5 fields each from 5 different sections (Penfold et al., 1996). Typically, the whole tumor is excised, sectioned and the sections examined histologically for microvessel density using appropriate stains or labels for other markers.\nAngiogenesis induced by tumor growth and metastasis in vivo is examined in the models systems described above. Mice injected with 3LL cells are treated either with peptide or with vehicle and are sacrificed at various time points. Angiogenesis is assessed by determining microvessel density (MVD) using an antibody specific for microvascular endothelium or other markers of growing blood vessels, such as PECAM (CD31). Such an antibody is employed in conventional immunohistological methods to immunostain tissue sections as described by Penfold et al., supra. A large number of such antibodies is commercially available, for example the JC70 mAb. The MVD are correlated with other measures of tumor behavior including lymph node status and primary tumor size and rate of growth. In humans as reported by Penfold et al., supra, tumor MVD correlates with lymph node metastasis and is independent of tumor size, growth rate or type of histological differentiation.\nThe compounds are given i.v., i.p., or by osmotic minipump Typical dosages are 100-250 mg/kg/day. At various time points, two animals are sacrificed, and the tumor tissue and surrounding tissue is prepared for histological examination. Results are reported as the average microvessel density of 5 fields each from 5 different sections. The following seven compounds are tested: Ac-[…]-Am (SEQ ID NO:2), Ac-[…]-Am (SEQ ID NO: 6) (disubstitution variant at positions 3 and 4), Ac-[…]-Am (SEQ ID NO: 7) (disubstitution variant at positions 7 and 8), Ac-[…]-Am (SEQ ID NO: 8) (substitution variant at position 1), Ac-PSSPPEE-Am (SEQ ID NO: 4) (deletion variant, position 1 of SEQ ID NO:2 deleted), Ac-KPSSPPE-Am (SEQ ID NO: 5) (deletion variant, position 8 of SEQ ID NO:2 deleted), and Ac-[…]-Am (SEQ ID NO:1)."}, "Acute toxicity in mice": {"experiment": "Acute toxicity in mice", "assay_type": "in vivo", "conditions": "observed for 3 days", "experimental": "Acute toxicity was evaluated at three different doses of Å6 (1500 mg/kg, 500 mg/kg and 250 mg/kg). Mice (n=6) were infused (i.v,) with a bolus of Å6 over 5-10 minutes and observed for 3 days."}, "Mat B-III tumors": {"system": "Mat B-III tumors", "experiment": "Rat syngeneic Mat B-III breast cancer model", "assay_type": "in vivo", "conditions": "75 mg/kg/day IP b.i.d."}, "[2]": {"system": "MDA-MB-231 human breast cancer cells", "experiment": "MDA-MB-231 GFP xenograft model", "design": "species or system mice", "conditions": "mouse, in vivo"}},
  "note": "“Also recorded” adds a separate entry of the source.",
  "data": [
    {"substance": "Ac-KPSSPPEE-NH2 [Å6, CH3CO-Lys-Pro-Ser-Ser-Pro-Pro-Glu-Glu-NH2]", "values": [
      {"measurement": "invasion of Mat B-III cells through Matrigel", "setting": "[1]", "result": "optimal; also recorded: inhibits the invasion"},
      {"measurement": "invasion of Mat B-III cells through Matrigel", "setting": "[1]; listed as Ac-KPSSPPEE-Am", "result": "inhibited the invasion"},
      {"measurement": "anti-proliferative effect, CHO", "setting": "CHO", "result": "No anti-proliferative effects"},
      {"measurement": "inhibition of binding of uPA to uPAR", "setting": "uPAR", "result": "no effect"},
      {"measurement": "number of microvessels in the region of the primary tumor", "setting": "3LL cells", "result": "significant reduction"},
      {"measurement": "overt toxicity", "setting": "Acute toxicity in mice; 1500, 500 and 250 mg/kg i.v. bolus over 5-10 minutes", "result": "No evidence for overt toxicity"},
      {"measurement": "survival after acute dosing", "setting": "Acute toxicity in mice; 1500, 500 and 250 mg/kg i.v. bolus", "result": "all the animals survived"},
      {"measurement": "macroscopic metastasis (number of macroscopic foci)", "setting": "Mat B-III tumors", "result": "continued to be suppressed; also recorded: inhibited"},
      {"measurement": "tumor growth (volume of primary tumor)", "setting": "Mat B-III tumors", "result": "inhibits"},
      {"measurement": "efficacy on tumors staged to 50-100 mm^3 prior to initiating treatment", "setting": "[2]", "result": "ineffective"}
    ]}
  ]
}
